Test results as given in ChEMBL document CHEMBL1127968, “Examination of peptidic ,-diamino-,-difluoroketones as inhibitors of human leukocyte elastase” (Bioorg Med Chem Lett, 1994).
pIC50, pKi: −log10 of the molar value.

Biological target: T1, Neutrophil elastase (Homo sapiens, UniProt P08246)
T1 sequence (P08246 whole entry): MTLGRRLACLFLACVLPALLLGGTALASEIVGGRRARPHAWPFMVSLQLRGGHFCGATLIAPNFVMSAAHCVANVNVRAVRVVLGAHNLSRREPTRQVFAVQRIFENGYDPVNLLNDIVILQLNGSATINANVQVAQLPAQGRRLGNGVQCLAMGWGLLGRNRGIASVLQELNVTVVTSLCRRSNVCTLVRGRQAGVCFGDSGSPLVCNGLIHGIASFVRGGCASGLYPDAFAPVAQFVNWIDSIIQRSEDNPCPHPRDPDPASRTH
Test: In vitro inhibitory activity against human leukocyte elastase was determined

Row | Structure (SMILES) | pKi | pIC50
1 | COc1ccc(C(=O)N[C@H](C(=O)N2CCC[C@H]2C(=O)N[C@H](C(=O)C(F)(F)CN)C(C)C)C(C)C)cc1 | 7.82 | 
2 | CC(C)[C@H](NC(=O)OCc1ccccc1)C(=O)N1CCC[C@H]1C(=O)N[C@H](C(=O)C(F)(F)CNC(=O)OC(C)(C)C)C(C)C | 8.96 | 
3 | CC(C)[C@H](NC(=O)OCc1ccccc1)C(=O)N1CCC[C@H]1C(=O)N[C@H](C(=O)C(F)(F)C(N)=O)C(C)C | 9.42 | 
4 | COc1ccc(C(=O)N[C@H](C(=O)N2CCC[C@H]2C(=O)N[C@H](C(=O)C(F)(F)C(N)=O)C(C)C)C(C)C)cc1 | 9.19 | 
5 | CC(C)[C@H](NC(=O)Oc1ccccc1)C(=O)N1CCC[C@H]1C(=O)N[C@H](C(=O)C(F)(F)CNC(=O)OC(C)(C)C)C(C)C | 9.41 | 
6 | CC(C)CC(=O)NCC(F)(F)C(=O)C(CC1CCCCC1)NC(=O)[C@@H](NC(=O)[C@H](Cc1ccccc1)NC(=O)OC(C)(C)C)C(C)C (stereo partly specified) |  | 8.46
7 | CC(C)[C@H](NC(=O)Oc1ccccc1)C(=O)N1CCC[C@H]1C(=O)N[C@H](C(=O)C(F)(F)F)C(C)C | 8.64 | 
8 | CC(C)[C@H](NC(=O)Oc1ccccc1)C(=O)N1CCC[C@H]1C(=O)N[C@H](C(=O)C(F)(F)CN)C(C)C | 9.09 | 
9 | COc1ccc(C(=O)N[C@H](C(=O)N2CCC[C@H]2C(=O)N[C@H](C(=O)C(F)(F)CNCc2ccccc2)C(C)C)C(C)C)cc1 | 9.46 | 
10 | CC(C)[C@H](NC(=O)OCc1ccccc1)C(=O)N1CCC[C@H]1C(=O)N[C@H](C(=O)C(F)(F)CN)C(C)C | 6.89 | 
11 | COc1ccc(C(=O)N[C@H](C(=O)N2CCC[C@H]2C(=O)N[C@H](C(=O)C(F)(F)CNC(=O)OC(C)(C)C)C(C)C)C(C)C)cc1 | 8.47 | 
12 | CNC(=O)C(F)(F)C(=O)[C@@H](NC(=O)[C@@H]1CCCN1C(=O)[C@@H](NC(=O)OCc1ccccc1)C(C)C)C(C)C | 8.52 | 
13 | CC(C)[C@H](NC(=O)OCc1ccccc1)C(=O)N1CCC[C@H]1C(=O)N[C@H](C(=O)C(F)(F)CNCc1ccccc1)C(C)C | 8.80 | 
14 | CNC(=O)C(F)(F)C(=O)[C@@H](NC(=O)[C@@H]1CCCN1C(=O)[C@@H](NC(=O)Oc1ccccc1)C(C)C)C(C)C | 9.07 | 
15 | CC(C)[C@H](NC(=O)Oc1ccccc1)C(=O)N1CCC[C@H]1C(=O)N[C@H](C(=O)C(F)(F)CNCc1ccccc1)C(C)C | 8.39 | 
16 | CNC(=O)C(F)(F)C(=O)[C@@H](NC(=O)[C@@H]1CCCN1C(=O)[C@@H](NC(=O)c1ccc(OC)cc1)C(C)C)C(C)C | 8.47 | 
